Patent US20220000777A1, “LIPOSOMAL ENHANCED INTRA-PERITONEAL CHEMOTHERAPY” (TESORX PHARMA, LLC, priority 2018, published 2022)
Several values for one entry are separate records, joined by “and”; a condition that tells them apart may be missing. Equal entries are not always repeated. Structures can show the parent of a compound that is named as a salt. Where two headings read alike, the source gives them in different places.

Experiments:
ovarian cancer [1] = conditions: intraperitoneal cisplatin regimen, versus 41 months, p=0.02; cited from earlier work
[2] = cited from earlier work
[3] = tested on: OVCAR3-RFP human ovarian cancer cells; assay: sulforhodamine B (SRB) assay, dosage curves and IC50; format: cell-based; conditions: 72 h treatment; for IC50: Homo sapiens, 72 h
Description: Example 1. Determination of paclitaxel […] in TSD-001-treated human ovarian cancer cells. A sulforhodamine B (SRB) assay-based approach was employed to determine the inhibitory concentration (IC)50 of paclitaxel against OVCAR3-RFP human ovarian cancer cells (Anticancer Inc.) treated with the TSD-001 paclitaxel liposomal formulation (Paclitaxel:DMPC:DMPG=1:1.43:0.567). For use in the assay, lyophilized TSD-001 was reconstituted in sterile injectable-grade water to a concentration of 6 mg/mL and subsequently serially diluted in RPMI cell culture medium (RPMI-1640 with L-glutamine, Corning). Three separate dosage curve assays were performed. In two of the assays, the serial dilutions of TSD-001 ranged from 0.05 μg/mL to 0.391 ng/mL, and in the third assay, the serial dilutions of TSD-001 ranged from 0.0128 μg/mL to 2.147 ng/mL.
Serial dilutions of the Abraxane® paclitaxel formulation (nanoparticle albuminbound paclitaxel) and doxorubicin HCl were also prepared to perform comparative dosage curve assays in OVCAR3-RFP cells. For these assays, lyophilized Abraxane® was dissolved in RPMI medium to a concentration of 1 mg/mL, and doxorubicin HCl was dissolved in a small amount of DMSO, and the diluted in RPMI medium to a concentration of 1 mg/mL. Three separate dosage curve assays were performed for Abraxane®. In one assay, the serial dilutions of Abraxane® ranged from 0.04 μg/mL to 0.078 ng/mL. In the second assay, the serial dilutions of Abraxane® ranged from 0.04 μg/mL to 8.39 ng/mL and in the third assay, the serial dilutions of Abraxane® ranged from 0.032 μg/mL to 8.39 ng/mL. […]
OVCAR3-RFP cells were seeded onto 96-well clear flat-bottom polystyrene tissue culture plates (Corning) at a density of approximately 5×10^3 cells/well in 200 μl of RPMI. […] Protein-bound SRB was detected by adding 200 μl 10 mM Tris base solution (pH 10.5) to each well, followed by placing the plate(s) on a byratory shaker for 5 minutes to allow the Tris solution to solubilize SRB. The plates were read using a microplate reader at an absorbance of 510 nm. […]

ovarian cancer [4] = conditions: cited from earlier work

SMILES: N.N.[Cl][Pt][Cl] [cisplatin, Cis-diamminedichloroplatinum(10)]
- overall survival median (ovarian cancer [1]): 49 months
- peritoneal cavity exposure to greater concentrations than possible with systemic therapy delivery ([2]; in vivo, ip): 10-20 fold

SMILES: COc1cccc2c1C(=O)c1c(O)c3c(c(O)c1C2=O)C[C@@](O)(C(=O)CO)C[C@@H]3O[C@H]1C[C@H](N)[C@H](O)[C@H](C)O1 [doxorubicin HCl]
- IC50 ([3]; Table 1, combined data, read-out: Mean IC50 (μg/mL) against OVCAR3-RFP cells (n ≥ 5)): 0.191 ± 0.0835 µg/mL
- IC50 ([3]; single dosage curve assay, n=3 or 4 wells/concentration, read-out: IC50 at 72 h.): 0.17 µg/mL
- IC50 at 72 h. ([3]; single dosage curve assay, n=3 or 4 wells/concentration, HCl): 0.1322 µg/mL and 0.166 µg/mL

SMILES: CC(=O)O[C@H]1C(=O)[C@@]2(C)[C@H]([C@H](OC(=O)c3ccccc3)[C@]3(O)C[C@H](OC(=O)[C@H](O)[C@@H](NC(=O)c4ccccc4)c4ccccc4)C(C)=C1C3(C)C)[C@]1(OC(C)=O)CO[C@@H]1C[C@@H]2O [paclitaxel]
- surgical complete response (ovarian cancer [4]; intraperitoneal 60 mg/m^2 per week for 16 weeks, microscopic residual patients): 61%
- complete response (ovarian cancer [4]; intraperitoneal 60 mg/m^2 per week for 16 weeks, women with macroscopic residual cancer): one of the 31
- dose-limiting toxicity (ovarian cancer [4]; intraperitoneal use, Phase 1 study): abdominal pain
- peritoneal cavity exposure to greater concentrations than possible with systemic therapy delivery ([2]; intraperitoneal versus systemic delivery): greater than 1000 fold
